Laboratory results: patent US12077503B2, “Substituted cyclic amides and their use as herbicides” (FMC CORPORATION, priority 2015, dated 2024)

Legend:
Format in all cases: in vivo
[1] = test system: Kochia (Kochia scoparia); assay: Test A preemergence; details: Bassia scoparia, pre-emergence, 240 h, preemergence, read-out: Kochia plant response rating; for pest or weed control at 125 g/ha: 125 g ai/ha, 0 to 100 scale where 0 is no effect and 100 is complete control; for pest or weed control at 500 g/ha: 500 g ai/ha, visual injury rating about 10 d after treatment, 0 to 100 scale (0 no effect, 100 complete control)
Summary of the method: (§1)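 Visual injury, scored on a 0–100 scale relative to untreated controls, was recorded about 10 d after application. Treatments were a preemergence soil spray over planted seeds or a postemergence spray on plants at the one- to two-leaf stage, 2 to 10 cm tall, all in loam soil–sand blend in the greenhouse.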

[2] = test system: barnyardgrass (Echinochloa crus-galli); assay: Test A preemergence; details: Echinochloa crus-galli, pre-emergence, 240 h, preemergence, read-out: Barnyardgrass plant response rating; for pest or weed control at 125 g/ha: 125 g ai/ha, 0 to 100 scale where 0 is no effect and 100 is complete control; for pest or weed control at 500 g/ha: 500 g ai/ha, visual injury rating about 10 d after treatment, 0 to 100 scale (0 no effect, 100 complete control)
Summary of the method: as §1

[3] = test system: giant foxtail (Setaria faberii); assay: Test A preemergence; details: Setaria faberi, pre-emergence, 240 h, preemergence, read-out: Foxtail, Giant plant response rating; for pest or weed control at 125 g/ha: 125 g ai/ha, 0 to 100 scale where 0 is no effect and 100 is complete control; for pest or weed control at 500 g/ha: 500 g ai/ha, visual injury rating about 10 d after treatment, 0 to 100 scale (0 no effect, 100 complete control)
Summary of the method: as §1

[4] = test system: pigweed (Amaranthus retroflexus); assay: Test A preemergence; details: Amaranthus retroflexus, pre-emergence, 240 h, preemergence, read-out: Pigweed plant response rating; for pest or weed control at 125 g/ha: 125 g ai/ha, 0 to 100 scale where 0 is no effect and 100 is complete control; for pest or weed control at 500 g/ha: 500 g ai/ha, visual injury rating about 10 d after treatment, 0 to 100 scale (0 no effect, 100 complete control)
[5] = test system: ragweed (common ragweed, Ambrosia elatior); assay: Test A preemergence; details: Ambrosia artemisiifolia, pre-emergence, 240 h, 500 g ai/ha, preemergence; visual injury rating about 10 d after treatment, 0 to 100 scale (0 no effect, 100 complete control); read-out: Ragweed plant response rating
Summary of the method: as §1

[6] = test system: ryegrass, Italian (Italian ryegrass, Lolium multiflorum); assay: Test A preemergence; details: Lolium multiflorum, pre-emergence, 240 h, 500 g ai/ha, preemergence; visual injury rating about 10 d after treatment, 0 to 100 scale (0 no effect, 100 complete control); read-out: Ryegrass, Italian plant response rating
Summary of the method: as §1

[7] = test system: Galium (catchweed bedstraw, Galium aparine); assay: Test A postemergence; details: Galium, post-emergence, 240 h, 125 g ai/ha, Postemergence; visual injury after approximately 10 d; 0 to 100 scale where 0 is no effect and 100 is complete control; read-out: Plant response rating, Galium
Summary of the method: as §1

[8] = test system: Kochia (Kochia scoparia); assay: Test A postemergence; details: Bassia scoparia, post-emergence, 240 h, 125 g ai/ha, Postemergence; visual injury after approximately 10 d; 0 to 100 scale where 0 is no effect and 100 is complete control; read-out: Plant response rating, Kochia
Summary of the method: as §1

[9] = test system: barnyardgrass (Echinochloa crus-galli); assay: Test A postemergence; details: Echinochloa crus-galli, post-emergence, 240 h, 125 g ai/ha, Postemergence; visual injury after approximately 10 d; 0 to 100 scale where 0 is no effect and 100 is complete control; read-out: Plant response rating, Barnyardgrass
Summary of the method: as §1

[10] = test system: blackgrass (Alopecurus myosuroides); assay: Test A postemergence; details: Alopecurus myosuroides, post-emergence, 240 h, 125 g ai/ha, Postemergence; visual injury after approximately 10 d; 0 to 100 scale where 0 is no effect and 100 is complete control; read-out: Plant response rating, Blackgrass
Summary of the method: as §1

[11] = test system: corn (Zea mays); assay: Test A postemergence; details: Zea mays, post-emergence, 240 h, 125 g ai/ha, Postemergence; visual injury after approximately 10 d; 0 to 100 scale where 0 is no effect and 100 is complete control
Summary of the method: as §1

[12] = test system: giant foxtail (Setaria faberii); assay: Test A postemergence; details: Setaria faberi, post-emergence, 240 h, 125 g ai/ha, Postemergence; visual injury after approximately 10 d; 0 to 100 scale where 0 is no effect and 100 is complete control; read-out: Plant response rating, Foxtail, Giant
Summary of the method: as §1

[13] = test system: pigweed (Amaranthus retroflexus); assay: Test A postemergence; details: Amaranthus retroflexus, post-emergence, 240 h, 125 g ai/ha, Postemergence; visual injury after approximately 10 d; 0 to 100 scale where 0 is no effect and 100 is complete control; read-out: Plant response rating, Pigweed
Summary of the method: as §1

[14] = test system: ryegrass, Italian (Italian ryegrass, Lolium multiflorum); assay: Test A postemergence; details: Lolium multiflorum, post-emergence, 240 h, 125 g ai/ha, Postemergence; visual injury after approximately 10 d; 0 to 100 scale where 0 is no effect and 100 is complete control; read-out: Plant response rating, Ryegrass, Italian
Summary of the method: as §1

[15] = test system: wheat (Triticum aestivum); assay: Test A postemergence; details: Triticum aestivum, post-emergence, 240 h, 125 g ai/ha, Postemergence; visual injury after approximately 10 d; 0 to 100 scale where 0 is no effect and 100 is complete control; read-out: Plant response rating, Wheat
Summary of the method: as §1

Row | SMILES | pest or weed control at 125 g/ha [1] | pest or weed control at 500 g/ha [1] | pest or weed control at 125 g/ha [2] | pest or weed control at 500 g/ha [2] | pest or weed control at 125 g/ha [3] | pest or weed control at 500 g/ha [3] | pest or weed control at 125 g/ha [4] | pest or weed control at 500 g/ha [4] | pest or weed control at 500 g/ha [5] | pest or weed control at 500 g/ha [6] | pest or weed control at 125 g/ha [7] | pest or weed control at 125 g/ha [8] | pest or weed control at 125 g/ha [9] | pest or weed control at 125 g/ha [10] | Corn plant response rating (crop injury, 0 = no effect, 100 = complete kill) at 125 g/ha [11] | pest or weed control at 125 g/ha [12] | pest or weed control at 125 g/ha [13] | pest or weed control at 125 g/ha [14] | plant injury at 125 g/ha [15]
1 | Cc1cc([C@H]2CN(C)C(=O)[C@@H]2C(=O)Nc2ccc(F)cc2F)ccc1Cl [Compound 930] | 70% | 90% | 90% | 90% | 90% | 90% | 20% | 30% | 0% | 70% | 40% | 20% | 80% | 20% | 40% | 80% | 30% | 30% | 30%
2 | CN1C[C@H](c2ccc(C(F)(F)F)cc2)[C@@H](C(=O)Nc2ccc(F)cc2Br)C1=O [Compound 934] | 50% | 80% | 70% | 90% | 90% | 90% | 0% | 80% | 30% | 60% | 60% | 20% | 60% | 0% | 20% | 90% | 20% | 0% | 0%
3 | Cc1cc(F)ccc1NC(=O)[C@H]1C(=O)N(C)C[C@@H]1c1ccc(C(F)(F)F)cc1 [Compound 936] | 60% | 90% | 70% | 90% | 90% | 90% | 20% | 80% | 50% | 70% | 40% | 20% | 60% | 30% | 30% | 90% | 20% | 0% | 30%
4 | Cc1cccc(NC(=O)[C@H]2C(=O)N(C)C[C@@H]2c2ccc(C(F)(F)F)cc2)c1F [Compound 939] | 30% | 60% | 90% | 90% | 90% | 90% | 0% | 0% | 50% | 20% | 20% | 0% | 80% | 0% | 0% | 90% | 0% | 0% | 20%
5 | Cc1cccc(NC(=O)[C@H]2C(=O)N(C)C[C@@H]2c2ccc(C(F)(F)F)cc2)c1C [Compound 941] | 0% | 0% | 80% | 90% | 90% | 90% | 0% | 0% | 30% | 0% | 20% | 0% | 50% | 0% | 0% | 60% | 0% | 0% | 0%
6 | CN1C[C@H](c2ccc(C(F)(F)F)cc2)[C@@H](C(=O)Nc2ccc(F)cc2C(F)(F)F)C1=O [Compound 942] | 70% | 90% | 70% | 90% | 90% | 90% | 80% | 90% | 50% | 20% | 50% | 30% | 60% | 70% | 0% | 80% | 70% | 0% | 20%
